Structures can show the parent of a compound that is named as a salt. Where two headings read alike, the source gives them in different places.
Experiments:
[1] = General antimicrobial activity assay (whole-cell broth microdilution MIC, CLSI M7-A7); type: cell-based
[2] = tested on: Mycobacterium tuberculosis H37Rv; test: Mycobacterium tuberculosis H37Rv inhibition assay (resazurin MIC); type: cell-based; settings: ATCC 25618 / H37Rv, read-out: MIC value
[3] = 144 h, H37Rv strain (ATCC25618), Middlebrook 7H9, 37° C., six days, resazurin fluorescence after 48 hours
[4] = H37Rv strain (ATCC25618), Middlebrook 7H9, 37° C., six days, resazurin fluorescence after 48 hours

SMILES	MIC [1] [µg/mL]	MIC [2, 3] [µg/mL]	further results
O=c1c(Cl)cc2ncc(F)c3c2n1CC3(O)CN1CCC(NCc2cc3c(cn2)OCCO3)CC1 (racemic) [Example 24, (4R/S)-8-Chloro-4-({4-[(2,3-dihydro[1,4]dioxino[2,3-c]pyridin-7-ylmethyl)amino]-1-piperidinyl}methyl)-3-fluoro-4-hydroxy-4,5-dihydro-7H-pyrrolo[3,2,1-de]-1,5-naphthyridin-7-one Dihydrochloride]	< 4	–	–
O=c1[nH]c2ccccc2nc1CNC1CCN(C[C@]2(O)Cn3c(=O)ccc4ncc(F)c2c43)CC1 [Example 38]	< 4	–	–
O=c1[nH]c(CNC2CCN(C[C@]3(O)Cn4c(=O)ccc5ncc(F)c3c54)CC2)nc2ccccc12 [Example 39]	< 4	–	–
CC(C)n1nnc2cc(CNC3CCN(C[C@]4(O)Cn5c(=O)ccc6ncc(F)c4c65)CC3)ccc21 [Example 47]	≤ 8	–	–
O=c1ccc2ncc(F)c3c2n1C[C@@]3(O)CN1CCC(NCc2ccc3nnsc3c2)CC1 [Example 53, (4S)-4-({4-[(1,2,3-benzothiadiazol-6-ylmethyl)amino]-1-piperidinyl}methyl)-3-fluoro-4-hydroxy-4,5-dihydro-7H-pyrrolo[3,2,1-de]-1,5-naphthyridin-7-one]	–	≤ 4	MIC [2, 4]: ≤ 1.7 µg/mL
O=c1ccc2ncc(F)c3c2n1C[C@@]3(O)CN1CCC(NCc2cc3cc(F)cc(F)c3[nH]2)CC1 [Example 54, (4S)-4-[(4-{[(5,7-difluoro-1H-indol-2-yl)methyl]amino}-1-piperidinyl)methyl]-3-fluoro-4-hydroxy-4,5-dihydro-7H-pyrrolo[3,2,1-de]-1,5-naphthyridin-7-one]	–	≤ 4	MIC [2, 4]: ≤ 1.7 µg/mL
O=c1ccc2ncc(F)c3c2n1C[C@@]3(O)CN1CCC(NCc2cnc3snnc3c2)CC1 [Example 56, (4S)-3-fluoro-4-hydroxy-4-({4-[([1,2,3]thiadiazolo[5,4-b]pyridin-6-ylmethyl)amino]-1-piperidinyl}methyl)-4,5-dihydro-7H-pyrrolo[3,2,1-de]-1,5-naphthyridin-7-one]	–	≤ 4	MIC [2, 4]: ≤ 1.7 µg/mL
COc1cnc2ccc(=O)n3c2c1[C@](O)(CN1CCC(NCc2cc4c(cn2)OCCO4)CC1)C3 [Example 65]	≤ 8	–	–
COc1cnc2ccc(=O)n3c2c1[C@](O)(CN1CCC(NCc2cc4c(nn2)OCCO4)CC1)C3 [Example 66]	–	–	MIC ([1]; read-out: MIC values): > 16 µg/mL
O=c1ccc2ncc(F)c3c2n1C[C@@]3(O)CN1CCC(NCc2ncc3c(n2)OCCO3)CC1 [Example 69, (4S)-4-({4-[6,7-dihydro[1,4]dioxino[2,3-d]pyrimidin-2-ylmethyl]amino]-1-piperidinyl}methyl)-3-fluoro-4-hydroxy-4,5-dihydro-7H-pyrrolo[3,2,1-de]-1,5-napthyridin-7-one (E1 Enantiomer Series) Dihydrochloride]	–	≤ 4	–
O=C1COc2cnc(CNC3CCN(C[C@]4(O)Cn5c(=O)ccc6ncc(F)c4c65)CC3)nc2N1 [Example 70, (4S)-3-fluoro-4-hydroxy-4-[(4-{[(7-oxo-6,7-dihydro-1H-pyrimido[5,4-b][1,4]oxazin-2-yl)methyl]amino}-1-piperidinyl)methyl]-4,5-dihydro-7H-pyrrolo[3,2,1-de]-1,5-naphthyridin-7-one Dihydrochloride]	–	–	MIC ([2]; 144 h): ≤ 4 µg/mL; MIC [2]: ≤ 1.7 µg/mL
